In brackets after ≈: the same amount, converted by molar mass.
Experiments:
[1] = Microsomal stability (intrinsic clearance), mouse liver microsomes; assay type: in vitro ADME; design: microsomal CLint: dose or concentration left out as unconfirmed; details: mouse, liver microsomes, pH 7.4, mouse liver microsomes
Description: (§1) A microsomal stability assay is used to measure in vitro clearance (Clint). The assay involves measuring the rate of disappearance of a compound due to its intrinsic attitude to be metabolized (“intrinsic” meaning that the disappearance is not affected by other properties like permeability, binding etc. that play a role when quantifying in vivo clearance). The microsomal stability (intrinsic clearance, Clint) and thus metabolic stability is generally given as μl/min/mg protein. It can be visualized as the volume of solution that 1 mg of microsomes is able to clear of the compound in one minute.
(§2) A Tecan Genesis workstation (RSP 150/8) was used for to perform the microsomal incubations. Analysis was carried out using a Waters ACQUITY UPLC system coupled to an ABSciex API3000 mass spectrometer. Data analysis was performed using Assay Explorer (Symyx).
(§3) Mobile phases: A=0.1% formic acid in water; B=acetonitrile
(§4) Flow rate: 0.750 mL/min; Detection: ESI, MRM; Injection: 10 μL; Column temperature: 50° C.
(§5) Potassium phosphate buffer: 0.05 M potassium phosphate buffer pH 7.4 containing 1 mM MgCl2 NADPH (nicotinamide adenine dinucleotide phosphate): 22.5 mg NADPH-Na4 in 1.8 ml potassium phosphate buffer Acetonitrile: 50 Vol % acetonitrile (1 volume acetonitrile, 1 volume water) DMSO: 20 Vol % DMSO in water Stock solution of 20 mg/ml human or mouse liver microsomes (protein)/ml in phosphate buffer Stock solution of 10 mM compound in 100% DMSO

[2] = Microsomal stability (intrinsic clearance), human liver microsomes; assay type: in vitro ADME; design: microsomal CLint: dose or concentration left out as unconfirmed; details: human, liver microsomes, pH 7.4, human liver microsomes
Description: as §1, §2, §3, §4, §5

[3] = Kinetic solubility; assay type: physicochemical; details: phosphate buffer, pH 7.4, aqueous buffer, kinetic from dmso stock, phosphate buffer 20 mM pH 7.4, 2% DMSO, room temperature
Procedure: Kinetic solubility of compounds of the present invention were tested according the following procedure.
(a) Buffer Solution Phosphate Buffer 20 mM pH 7.4 is prepared using Sorensen Phosphate Buffer 0.2 M pH 7.4 (EMS) in a 1000 mL volumetric flask (b) 2% DMSO in Phosphate Buffer 20 mM pH 7.4 is prepared by using 1 mL Dimethylsulfoxide (Merck) and 49 ml Sorensen Phosphate Buffer 20 mM pH 7.4 (c) Acetonitrile/Methanole/Eluent A (1:1:2; v/v/v) is prepared by using 50 mL Acetonitrile (Merck), 50 mL Methanol (Merck) and 100 mL Eluent A (d) Eluent A is prepared by using 1 mL Formic Acid (Merck) and 999 mL Ultrapure water (e) Eluent B is prepared by using 1 mL Formic Acid (Merck) and 999 mL Acetonitrile (Merck) (f) Filtration plate: Millipore MultiScreen HTS HV (0.45 μm) 96 Well (Millipore)
98 μL buffer solution (a) is added into a well of a 96 well filtration plate (f). Then 2 μL of 10 mM test compound solution in DMSO (Remp tube) is added. The filtration plate is incubated at room temperature for 120 minutes while agitating at 250 rpm and centrifuged with the PP-Plate (g) as receiver plate below (2500 rpm, 3 min). The 50 μL of filtrate is taken from the receiver plate and mixed with 50 μL of 2% DMSO in buffer pH 7.4 solution (b) (dilution factor=2) in a HPLC Vial (i)+(j).
Standard is prepared by diluting 2 μL of the same 10 mM test compound solution (Remp tube) diluted with 198 μL Acetonitrile/Methanole/Eluent A (1:1:2; v/v/v) (c) to prepare a 100 μM standard solution in a HPLC Vial (i)+(j).
Column temperature: 37° C. Autosampler: room temperature (approx. 25° C.) Gradient programme: […]
Injection volume: 10 μL Wavelength: Suitable wavelength (maximum sensitivity) selected out of wavelength range of 190-400 nm using a DAD detector.
L [μg/mL]=(area sample*concentration standard*dilution factor sample)/(area standard*dilution factor standard)
S [mol/L]=[…] Calculation: […]

Structure (SMILES)	microsomal CLint [1]	microsomal CLint [2]	solubility kinetic at 120 min [3]
Cn1cc([C@H](Nc2cc(-c3ccc4ccn(C)c4c3)c3nccnc3c2)c2cnnn2C)cn1 (single isomer, unassigned) [Example 8]	29 µL/min/mg	50 µL/min/mg	110 µM (≈ 49.4 µg/mL)
Cn1ccc2ccc(-c3cc(NC(c4cccnc4)c4ccc(=O)[nH]n4)cc4nccnc34)cc21 (single isomer, unassigned) [Example 2]	101 µL/min/mg	78 µL/min/mg	61 µM (≈ 28 µg/mL)
COc1ccc([C@@H](Nc2cc(-c3ccc4ccn(C)c4c3)c3nccnc3c2)c2cccnc2)nn1 (single isomer, unassigned) [Example 5]	154 µL/min/mg	264 µL/min/mg	20 µM (≈ 9.47 µg/mL)
Cn1cc([C@H](Nc2cc(-c3ccc4ccn(C)c4c3)c3nccnc3c2)c2cncn2C)cn1 (single isomer, unassigned) [Example 11]	105 µL/min/mg	130 µL/min/mg	100 µM (≈ 44.9 µg/mL)
COc1ccc([C@@H](Nc2cc(-c3ccc4ccn(C)c4c3)c3nccnc3c2)c2cccnc2)cn1 [Comparative Example 4, [(S)-(6-methoxy-pyridin-3-yl)-pyridin-3-yl-methyl]-[8-(1-methyl-1H-indol-6-yl)-quinoxalin-6-yl]-amine, reference compound]	291 µL/min/mg	214 µL/min/mg	3.7 µM (≈ 1.75 µg/mL)
